Data from US4554284A, “7-(2-Aminoethyl)-1,3-benzthia- or oxa-zol-2(3H)-ones” (Smithkline Beckman Corporation, priority 1984, dated 1985).
Read-outs that look alike come from different tables or passages of the source.

Biological target: T1, D2-receptors (presynaptic dopaminergic receptors) (Oryctolagus cuniculus, UniProt G1T1Q0)
T1 construct: perfused rabbit ear artery protocol; from tissue; host or cells: rabbit ear artery (perfused, isolated)
Experiment: perfused rabbit ear artery protocol (D2-agonist activity)
Type: cell-based

[1] = perfused rabbit ear artery, D2-agonist activity, read-out: EC50

T1 sequence (G1T1Q0 1-443): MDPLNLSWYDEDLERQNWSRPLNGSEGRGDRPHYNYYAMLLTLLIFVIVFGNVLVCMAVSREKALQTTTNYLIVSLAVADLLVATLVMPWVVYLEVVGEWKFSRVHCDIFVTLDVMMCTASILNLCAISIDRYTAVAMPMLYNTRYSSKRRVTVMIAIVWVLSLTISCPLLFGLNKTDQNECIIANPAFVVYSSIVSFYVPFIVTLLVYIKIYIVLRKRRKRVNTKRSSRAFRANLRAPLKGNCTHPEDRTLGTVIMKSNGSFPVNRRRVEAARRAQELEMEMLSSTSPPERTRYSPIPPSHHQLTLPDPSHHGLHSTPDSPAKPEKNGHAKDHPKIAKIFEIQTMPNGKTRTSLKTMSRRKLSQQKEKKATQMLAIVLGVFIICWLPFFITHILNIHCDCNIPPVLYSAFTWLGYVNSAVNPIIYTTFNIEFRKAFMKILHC

Compound	EC50 [1] [nM]	times more potent than its oxa congener [times]	times more potent than the corresponding indolone [times]	EC50 [nM]
CCCN(CCC)CCc1c(Cl)cc(O)c2nc(O)sc12 [B, 4-hydroxy-6-chloro-7-[2-(di-n-propylamino)ethyl]-1,3-benzthiazol-2(3H)-one]	50	–	–	–
NCCc1ccc(O)c(O)c1 [D, dopamine, reference compound]	–	–	–	40
CCCN(CCC)CCc1ccc(O)c2[nH]c(=O)ccc12 [E, 8-hydroxy-5-[2-(di-n-propylamino)ethyl]-carbostyril, reference compound]	200	–	–	–

Second part, led by results:

EC50 [1] [nM]	times more potent than its oxa congener [times]	times more potent than the corresponding indolone [times]	Compound	EC50 [nM]
8	–	–	CCCN(CCC)CCc1ccc(O)c2[nH]c(=O)oc12 [C, 4-hydroxy-7-[2-(di-n-propylamino)ethyl]-1,3-benzoxazol-2(3H)-one]	–
0.2	~40	10	CCCN(CCC)CCc1ccc(O)c2[nH]c(=O)sc12 [Compound A, 4-hydroxy-7-[2-(di-n-propylamino)ethyl]-1,3-benzthiazol-2(3H)-one]	–
